Data published in publication PMC9120017, “Inhibition mechanism of the chloride channel TMEM16A by the pore blocker 1PBC” (Nature Communications, 2022).
Converted amounts (≈) assume the structure as drawn.

Assay: Solubility of 1PBC in aqueous solution
Format: physicochemical

solubility: ~100 µM (≈ 27.7 µg/mL)
Compound: N#Cc1c(C(F)(F)F)cc(O)n2c1nc1ccccc12 [1PBC]
